From publication PMC12586182 (Frontiers in Oncology, 2025)

Key:
Experiment in all cases: Kinase panel profiling at 1 µmol/L (mobility shift assay, Carna)
Assay type in all cases: biochemical
Settings in all cases: 1 µmol/L of BTK inhibitor
EPHA2 = molecular target: T1, EPHA2 (Homo sapiens, UniProt P29317)
T1 construct: purchased Carna Biosciences

EPHA8 = molecular target: T2, EPHA8 (Homo sapiens, UniProt P29322)
T2 construct: purchased Carna Biosciences
T2 sequence (P29322 28-1005): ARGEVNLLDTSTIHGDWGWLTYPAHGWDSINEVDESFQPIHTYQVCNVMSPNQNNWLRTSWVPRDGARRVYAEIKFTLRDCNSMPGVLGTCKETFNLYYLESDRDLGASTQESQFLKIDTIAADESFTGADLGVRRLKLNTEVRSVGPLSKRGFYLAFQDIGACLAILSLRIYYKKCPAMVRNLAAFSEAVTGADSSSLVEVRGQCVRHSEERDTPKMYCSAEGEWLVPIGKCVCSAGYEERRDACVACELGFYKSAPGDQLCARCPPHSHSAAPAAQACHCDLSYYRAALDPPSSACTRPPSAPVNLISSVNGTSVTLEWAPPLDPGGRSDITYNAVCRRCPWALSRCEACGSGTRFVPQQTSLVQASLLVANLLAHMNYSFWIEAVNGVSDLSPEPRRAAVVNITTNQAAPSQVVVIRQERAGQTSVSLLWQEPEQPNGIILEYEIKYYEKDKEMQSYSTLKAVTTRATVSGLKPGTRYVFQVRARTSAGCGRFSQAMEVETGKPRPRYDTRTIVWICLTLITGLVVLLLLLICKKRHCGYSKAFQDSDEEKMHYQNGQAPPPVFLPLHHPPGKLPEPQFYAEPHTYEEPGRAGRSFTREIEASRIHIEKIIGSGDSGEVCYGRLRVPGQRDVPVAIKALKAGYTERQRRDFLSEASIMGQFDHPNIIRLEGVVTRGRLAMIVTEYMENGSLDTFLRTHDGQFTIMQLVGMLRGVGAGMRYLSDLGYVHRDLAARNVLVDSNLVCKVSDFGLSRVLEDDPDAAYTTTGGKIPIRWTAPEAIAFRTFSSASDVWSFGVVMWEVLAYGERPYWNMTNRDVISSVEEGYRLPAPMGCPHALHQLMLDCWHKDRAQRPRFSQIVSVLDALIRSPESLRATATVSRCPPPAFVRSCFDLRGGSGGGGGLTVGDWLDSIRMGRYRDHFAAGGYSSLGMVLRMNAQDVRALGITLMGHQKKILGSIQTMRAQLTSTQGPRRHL

IGF1R = molecular target: T3, IGF1R (Homo sapiens, UniProt P08069)
T3 construct: purchased Carna Biosciences
T3 sequence (P08069 31-1367): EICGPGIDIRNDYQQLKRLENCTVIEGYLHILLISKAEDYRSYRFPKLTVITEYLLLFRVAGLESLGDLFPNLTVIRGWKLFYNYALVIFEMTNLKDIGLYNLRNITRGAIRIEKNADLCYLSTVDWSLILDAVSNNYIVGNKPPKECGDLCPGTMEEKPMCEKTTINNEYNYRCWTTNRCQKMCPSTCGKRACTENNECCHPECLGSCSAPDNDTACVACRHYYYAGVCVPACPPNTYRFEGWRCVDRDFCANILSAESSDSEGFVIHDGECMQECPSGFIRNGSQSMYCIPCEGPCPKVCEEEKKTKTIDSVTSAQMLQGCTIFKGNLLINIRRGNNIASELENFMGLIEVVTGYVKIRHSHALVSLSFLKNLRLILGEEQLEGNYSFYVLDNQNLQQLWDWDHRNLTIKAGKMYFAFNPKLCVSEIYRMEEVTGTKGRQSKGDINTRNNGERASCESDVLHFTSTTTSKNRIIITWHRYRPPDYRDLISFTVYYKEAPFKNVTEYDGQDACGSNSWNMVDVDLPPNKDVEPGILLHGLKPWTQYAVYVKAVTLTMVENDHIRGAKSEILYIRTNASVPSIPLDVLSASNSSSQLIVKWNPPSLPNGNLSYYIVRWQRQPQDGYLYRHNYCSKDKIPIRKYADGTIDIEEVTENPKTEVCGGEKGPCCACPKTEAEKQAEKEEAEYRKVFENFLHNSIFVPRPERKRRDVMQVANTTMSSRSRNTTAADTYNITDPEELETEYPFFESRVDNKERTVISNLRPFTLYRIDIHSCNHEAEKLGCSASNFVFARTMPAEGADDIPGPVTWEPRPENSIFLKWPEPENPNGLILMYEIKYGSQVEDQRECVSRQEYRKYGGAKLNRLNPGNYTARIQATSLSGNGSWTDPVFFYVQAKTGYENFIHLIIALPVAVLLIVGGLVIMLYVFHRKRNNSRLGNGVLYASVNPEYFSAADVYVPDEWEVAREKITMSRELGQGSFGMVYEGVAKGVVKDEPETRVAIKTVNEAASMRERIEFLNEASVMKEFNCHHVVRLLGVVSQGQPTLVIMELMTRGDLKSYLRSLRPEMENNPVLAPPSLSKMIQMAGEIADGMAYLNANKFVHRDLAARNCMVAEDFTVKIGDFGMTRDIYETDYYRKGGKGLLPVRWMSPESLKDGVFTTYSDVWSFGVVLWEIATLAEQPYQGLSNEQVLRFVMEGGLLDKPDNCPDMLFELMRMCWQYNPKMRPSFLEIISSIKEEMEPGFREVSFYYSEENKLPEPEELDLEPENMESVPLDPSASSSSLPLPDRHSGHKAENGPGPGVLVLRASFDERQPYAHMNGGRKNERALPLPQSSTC

TNK1 = molecular target: T4, TNK1 (Homo sapiens, UniProt Q13470)
T4 construct: purchased Carna Biosciences
T4 sequence (Q13470 1-666): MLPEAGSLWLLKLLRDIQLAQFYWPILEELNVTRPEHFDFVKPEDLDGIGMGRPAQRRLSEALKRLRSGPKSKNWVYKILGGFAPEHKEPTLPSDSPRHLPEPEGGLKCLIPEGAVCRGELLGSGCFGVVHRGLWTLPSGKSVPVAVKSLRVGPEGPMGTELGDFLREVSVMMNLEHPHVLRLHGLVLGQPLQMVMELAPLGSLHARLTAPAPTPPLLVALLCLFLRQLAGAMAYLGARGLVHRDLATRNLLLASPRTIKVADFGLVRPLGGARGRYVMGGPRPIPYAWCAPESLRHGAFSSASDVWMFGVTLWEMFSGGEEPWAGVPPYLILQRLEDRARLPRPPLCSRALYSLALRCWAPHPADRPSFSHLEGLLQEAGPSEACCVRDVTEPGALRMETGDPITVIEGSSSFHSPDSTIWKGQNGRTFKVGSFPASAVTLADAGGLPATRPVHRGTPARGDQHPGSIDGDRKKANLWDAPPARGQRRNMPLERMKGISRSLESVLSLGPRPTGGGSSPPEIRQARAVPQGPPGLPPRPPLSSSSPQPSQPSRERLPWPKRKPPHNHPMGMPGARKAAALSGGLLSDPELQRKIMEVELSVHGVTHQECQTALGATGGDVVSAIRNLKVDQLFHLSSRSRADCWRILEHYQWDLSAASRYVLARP

CK1δ = molecular target: T5, CK1δ (Homo sapiens, UniProt P48730)
T5 construct: purchased Carna Biosciences

CK1ε = molecular target: T6, CK1ε (Homo sapiens, UniProt P49674)
T6 construct: purchased Carna Biosciences

HGK = molecular target: T7, HGK (Homo sapiens, UniProt O95819)
T7 construct: purchased Carna Biosciences
T7 sequence (O95819 whole entry): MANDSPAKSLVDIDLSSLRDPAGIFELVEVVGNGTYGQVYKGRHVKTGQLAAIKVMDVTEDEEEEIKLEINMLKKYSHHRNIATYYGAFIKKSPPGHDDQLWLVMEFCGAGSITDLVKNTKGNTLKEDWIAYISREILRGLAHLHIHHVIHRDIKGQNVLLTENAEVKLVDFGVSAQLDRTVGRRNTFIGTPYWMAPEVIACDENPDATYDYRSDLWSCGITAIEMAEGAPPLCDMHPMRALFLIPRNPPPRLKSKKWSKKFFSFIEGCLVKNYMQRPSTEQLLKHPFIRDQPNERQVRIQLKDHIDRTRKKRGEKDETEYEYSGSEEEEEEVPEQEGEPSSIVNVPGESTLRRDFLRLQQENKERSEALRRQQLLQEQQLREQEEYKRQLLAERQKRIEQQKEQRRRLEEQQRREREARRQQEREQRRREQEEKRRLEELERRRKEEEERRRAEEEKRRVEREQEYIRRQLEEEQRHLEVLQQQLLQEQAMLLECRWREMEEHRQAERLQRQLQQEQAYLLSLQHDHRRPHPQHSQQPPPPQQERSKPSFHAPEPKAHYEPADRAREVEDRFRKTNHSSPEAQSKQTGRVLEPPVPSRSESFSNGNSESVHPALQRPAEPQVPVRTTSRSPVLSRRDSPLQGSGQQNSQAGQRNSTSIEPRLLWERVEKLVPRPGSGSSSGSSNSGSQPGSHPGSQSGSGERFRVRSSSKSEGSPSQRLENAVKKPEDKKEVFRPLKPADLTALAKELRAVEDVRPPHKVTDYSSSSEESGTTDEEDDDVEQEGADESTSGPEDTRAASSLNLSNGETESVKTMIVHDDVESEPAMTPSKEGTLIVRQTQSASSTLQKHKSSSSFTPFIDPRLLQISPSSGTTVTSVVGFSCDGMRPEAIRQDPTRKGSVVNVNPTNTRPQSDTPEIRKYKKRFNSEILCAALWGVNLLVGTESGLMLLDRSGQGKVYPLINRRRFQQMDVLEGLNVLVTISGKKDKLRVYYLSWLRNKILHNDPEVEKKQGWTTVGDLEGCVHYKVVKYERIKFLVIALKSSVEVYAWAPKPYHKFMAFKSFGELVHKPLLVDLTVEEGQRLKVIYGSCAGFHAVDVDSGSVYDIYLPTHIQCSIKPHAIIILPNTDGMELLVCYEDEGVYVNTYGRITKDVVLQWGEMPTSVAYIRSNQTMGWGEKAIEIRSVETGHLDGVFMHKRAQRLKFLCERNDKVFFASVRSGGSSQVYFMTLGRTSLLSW

MSSK1 = molecular target: T8, MSSK1 (Homo sapiens, UniProt Q9UPE1)
T8 construct: purchased Carna Biosciences

NuaK1 = molecular target: T9, NuaK1 (Homo sapiens, UniProt O60285)
T9 construct: purchased Carna Biosciences
T9 sequence (O60285 1-661): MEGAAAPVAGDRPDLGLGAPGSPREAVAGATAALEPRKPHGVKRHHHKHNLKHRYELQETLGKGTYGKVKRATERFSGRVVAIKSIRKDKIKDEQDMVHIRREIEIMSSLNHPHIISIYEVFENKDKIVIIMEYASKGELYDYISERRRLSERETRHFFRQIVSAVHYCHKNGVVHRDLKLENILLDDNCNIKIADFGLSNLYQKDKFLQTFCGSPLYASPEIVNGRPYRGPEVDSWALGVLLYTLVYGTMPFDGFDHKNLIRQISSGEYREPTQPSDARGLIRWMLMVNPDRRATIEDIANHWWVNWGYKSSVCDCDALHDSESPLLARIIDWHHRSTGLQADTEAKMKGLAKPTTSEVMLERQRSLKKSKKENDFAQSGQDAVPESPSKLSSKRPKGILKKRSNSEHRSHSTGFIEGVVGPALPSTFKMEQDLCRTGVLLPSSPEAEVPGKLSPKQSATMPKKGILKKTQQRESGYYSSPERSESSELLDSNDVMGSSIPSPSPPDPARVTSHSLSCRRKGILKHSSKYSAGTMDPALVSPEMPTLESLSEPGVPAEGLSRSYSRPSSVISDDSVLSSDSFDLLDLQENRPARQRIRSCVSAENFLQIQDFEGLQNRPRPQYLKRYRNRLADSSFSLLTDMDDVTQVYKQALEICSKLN

p70S6Kβ = molecular target: T10, p70S6Kβ (Homo sapiens, UniProt Q9UBS0)
T10 construct: purchased Carna Biosciences

PKCβ2 = molecular target: T11, PKCβ2 (Homo sapiens, UniProt P05771)
T11 construct: purchased Carna Biosciences
T11 sequence (P05771 1-673 isoform P05771-2): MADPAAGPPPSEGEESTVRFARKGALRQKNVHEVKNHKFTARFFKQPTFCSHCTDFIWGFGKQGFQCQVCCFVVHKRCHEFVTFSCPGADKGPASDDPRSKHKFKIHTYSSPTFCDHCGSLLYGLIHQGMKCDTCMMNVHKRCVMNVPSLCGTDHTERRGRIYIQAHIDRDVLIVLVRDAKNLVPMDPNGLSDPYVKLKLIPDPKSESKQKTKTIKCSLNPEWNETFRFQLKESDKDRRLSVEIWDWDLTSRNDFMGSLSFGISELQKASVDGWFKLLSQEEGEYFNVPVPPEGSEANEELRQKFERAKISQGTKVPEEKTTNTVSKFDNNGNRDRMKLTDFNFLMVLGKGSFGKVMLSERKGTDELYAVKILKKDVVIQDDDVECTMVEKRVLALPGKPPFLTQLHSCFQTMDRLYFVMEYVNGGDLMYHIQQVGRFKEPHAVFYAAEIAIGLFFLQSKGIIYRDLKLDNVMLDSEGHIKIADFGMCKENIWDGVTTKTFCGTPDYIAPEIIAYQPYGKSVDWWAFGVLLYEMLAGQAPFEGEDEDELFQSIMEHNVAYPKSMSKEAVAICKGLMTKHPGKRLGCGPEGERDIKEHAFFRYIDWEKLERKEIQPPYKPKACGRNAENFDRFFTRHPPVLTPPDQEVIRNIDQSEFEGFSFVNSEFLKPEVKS

SRPK1 = molecular target: T12, SRPK1 (Homo sapiens, UniProt Q96SB4)
T12 construct: purchased Carna Biosciences
T12 sequence (Q96SB4 whole entry): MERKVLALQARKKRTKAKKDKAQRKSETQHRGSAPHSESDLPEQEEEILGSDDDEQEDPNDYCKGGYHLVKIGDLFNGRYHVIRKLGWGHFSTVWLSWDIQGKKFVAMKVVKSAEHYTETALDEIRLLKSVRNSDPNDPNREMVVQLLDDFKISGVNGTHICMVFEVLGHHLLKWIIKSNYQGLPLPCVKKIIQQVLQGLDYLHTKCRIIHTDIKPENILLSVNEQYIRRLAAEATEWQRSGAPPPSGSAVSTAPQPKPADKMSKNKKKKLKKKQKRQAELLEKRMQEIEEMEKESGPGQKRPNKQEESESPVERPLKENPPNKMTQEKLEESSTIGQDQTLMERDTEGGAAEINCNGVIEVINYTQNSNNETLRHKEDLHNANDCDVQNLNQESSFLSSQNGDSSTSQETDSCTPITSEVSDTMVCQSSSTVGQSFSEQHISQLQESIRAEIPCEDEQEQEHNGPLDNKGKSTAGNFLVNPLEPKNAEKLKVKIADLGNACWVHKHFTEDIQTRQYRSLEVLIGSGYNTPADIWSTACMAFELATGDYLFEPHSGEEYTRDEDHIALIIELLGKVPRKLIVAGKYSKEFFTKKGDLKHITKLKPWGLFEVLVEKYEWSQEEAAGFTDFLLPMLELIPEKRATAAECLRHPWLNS

T1 sequence (P29317 24-976): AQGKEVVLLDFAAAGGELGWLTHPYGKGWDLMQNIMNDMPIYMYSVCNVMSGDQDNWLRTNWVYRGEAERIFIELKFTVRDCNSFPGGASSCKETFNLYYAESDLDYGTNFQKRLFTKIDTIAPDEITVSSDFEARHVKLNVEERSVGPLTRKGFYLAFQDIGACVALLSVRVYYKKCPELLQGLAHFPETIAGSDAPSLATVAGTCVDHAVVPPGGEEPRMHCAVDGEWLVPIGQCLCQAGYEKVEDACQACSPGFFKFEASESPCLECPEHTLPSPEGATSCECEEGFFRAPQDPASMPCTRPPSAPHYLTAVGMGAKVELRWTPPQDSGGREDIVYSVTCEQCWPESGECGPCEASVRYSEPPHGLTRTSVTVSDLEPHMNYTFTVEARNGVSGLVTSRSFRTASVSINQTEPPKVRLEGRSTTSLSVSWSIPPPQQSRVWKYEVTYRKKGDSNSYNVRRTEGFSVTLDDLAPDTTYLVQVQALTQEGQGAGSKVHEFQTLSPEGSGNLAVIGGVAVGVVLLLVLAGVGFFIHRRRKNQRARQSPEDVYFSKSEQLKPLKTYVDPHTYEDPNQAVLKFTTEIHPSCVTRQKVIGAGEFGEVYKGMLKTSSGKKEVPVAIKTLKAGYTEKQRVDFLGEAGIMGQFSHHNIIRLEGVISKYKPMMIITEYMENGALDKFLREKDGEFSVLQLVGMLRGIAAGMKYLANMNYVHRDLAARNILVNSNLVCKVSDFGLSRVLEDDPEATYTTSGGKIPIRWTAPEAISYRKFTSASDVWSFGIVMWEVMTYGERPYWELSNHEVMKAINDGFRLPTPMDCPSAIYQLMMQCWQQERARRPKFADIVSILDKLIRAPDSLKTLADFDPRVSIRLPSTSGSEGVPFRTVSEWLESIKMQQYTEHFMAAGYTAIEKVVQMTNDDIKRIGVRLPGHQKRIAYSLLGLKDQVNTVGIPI

Row | SMILES | Percentage inhibition of kinase enzyme activity (EPHA2) | Percentage inhibition of kinase enzyme activity (EPHA8) | Percentage inhibition of kinase enzyme activity (IGF1R) | Percentage inhibition of kinase enzyme activity (TNK1) | Percentage inhibition of kinase enzyme activity (CK1δ) | Percentage inhibition of kinase enzyme activity (CK1ε) | Percentage inhibition of kinase enzyme activity (HGK) | Percentage inhibition of kinase enzyme activity (MSSK1) | Percentage inhibition of kinase enzyme activity (NuaK1) | Percentage inhibition of kinase enzyme activity (p70S6Kβ) | Percentage inhibition of kinase enzyme activity (PKCβ2) | Percentage inhibition of kinase enzyme activity (SRPK1)
1 | CC#CC(=O)N1CCC[C@H]1c1nc(-c2ccc(C(=O)Nc3ccccn3)cc2)c2c(N)nccn12 [acalabrutinib] | -3.60% | 6.51% | 0.47% | -1.80% | 2.76% | -10.49% | -1.42% | -4.86% | -3.51% | -14.17% | -12.04% | -4.73%
2 | C=CC(=O)N1CCC[C@@H](n2nc(-c3ccc(Oc4ccccc4)cc3)c3c(N)ncnc32)C1 [ibrutinib] | 6.83% | 54.68% | 7.45% | 6.17% | 7.46% | 49.55% | -0.0249% | 1.54% | 6.70% | 0.87% | 1.78% | 1.20%
3 | O=C(c1ccc(Oc2ccccc2)cc1Cl)c1c[nH]c2ncnc(N[C@@H]3CC[C@@H](CO)OC3)c12 [nemtabrutinib] | 33.13% | 50.84% | 99.20% | 75.62% | 25.76% | 95.45% | 72.78% | -0.95% | 3.95% | 4.30% | -1.79% | 6.73%
4 | C=CC(=O)N1CCC([C@@H]2CCNc3c(C(N)=O)c(-c4ccc(Oc5ccccc5)cc4)nn32)CC1 [zanubrutinib] | -0.10% | -2.10% | 4.03% | – | – | – | – | – | – | – | -1.66% | –
5 | COc1ccc(F)cc1C(=O)NCc1ccc(-c2nn([C@@H](C)C(F)(F)F)c(N)c2C(N)=O)cc1 [pirtobrutinib] | 4.53% | -19.48% | 0.28% | 3.07% | 6.20% | 15.87% | 3.60% | -8.63% | 4.02% | 10.01% | -8.67% | 8.97%
